{
  "source": "paper PMC4501059",
  "about": "“Responding to the challenge of untreatable gonorrhea: ETX0914, a first-in-class agent with a distinct mechanism-of-action against bacterial Type II topoisomerases” (Scientific Reports, 2015)",
  "key": {"[1]": {"conditions": "rat, in vivo"}, "[2]": {"experiment": "in vivo", "conditions": "rat, po"}, "[3]": {"experiment": "plasma protein binding, mouse", "conditions": "in vitro at 1-50 µM"}, "[4]": {"experiment": "Quantitative whole-body autoradiography, tissue distribution of radioactivity", "type": "in vivo, male pigmented Lister Hood rat", "method": "Quantitative whole-body autoradiography. The distribution of radioactivity in male, pigmented Lister Hood rat tissues was obtained after a single intravenous infusion over 15 minutes of ^14C-AZD0914 at 25 mg/kg (51 μmol/kg, 5 MBq/kg) using quantitative whole-body autoradiography with phosphor-imaging technology. The potential of this compound and/or its metabolites to bind to melanin-containing tissues and/or to potentially bind covalently to tissues was also evaluated. The rats were sacrificed at 5 minutes, 1 hour, 4 hours, 24 hours, 48 hours, 7 days and 21 days after the end of infusion with enflurane (Efrane®, Abbott Laboratories, USA), and frozen in acetone, cooled to -70 °C with solid CO2. The 7- and 21- day animals could not be quantified as no trace of radioactivity was observed. After removal of limbs and tail, the carcass was embedded, with left lateral side uppermost, in a 2.5% (w/v) aqueous solution of caramellosum natricum and frozen for at least 10 minutes. The animal blocks were stored at -20 °C until sectioning. Sagittal whole-body sections (30 μm) were obtained to include organs and tissues of interest. At sectioning each block was mounted in a Leica CM3600 Cryomacrotome (Leica Microsystems GmbH, Germany) maintained at approximately -20 °C. All sections were dried at -20 °C for at least 1 day prior to exposure on phosphor-imaging plates. Together with two sets of calibration standards, the sections were placed on phosphor-imaging plates, which had been pre-covered with a thin plastic film. The imaging plates were exposed for 1 to 3 days at +4 to +12 °C, enclosed in light tight cassettes in a lead shielding box to protect from environmental radiation. Following exposure, the imaging plates were scanned at a pixel size of 50 μm using FLA-7000 (FujiFilm Sverige AB, Sweden). The tissues and organs of interest were quantified using AIDA 3.5 (Raytest, Germany). The quantification limit was defined as twice the background value of the imaging plate and varied between the plates from 0.23 to 0.33 nmol/g. The various tissues and organs were identified either on the autoradiograms or on the corresponding tissue sections."}, "[5]": {"experiment": "Human plasma protein binding (PPB)", "conditions": "independent of concentration 1–50 μM"}, "[6]": {"conditions": "5 minutes after 25 mg/kg iv infusion"}, "[7]": {"conditions": "1 hour after 25 mg/kg iv infusion"}, "[8]": {"conditions": "4 hours after 25 mg/kg iv infusion"}},
  "data": [
    {"smiles": "CC(=O)NC[C@H]1CN(c2ccc(N3CCOCC3)c(F)c2)C(=O)O1", "note": "[Linezolid]", "values": [
      {"measurement": "neutrophil count", "setting": "[1]", "result": "showing suppression"},
      {"measurement": "reticulocytes count", "setting": "[1]; 250 mg/kg", "result": "significant suppression"},
      {"measurement": "AUC", "setting": "[2]", "result": 1900, "unit": "µM·h"}
    ]},
    {"smiles": "C[C@@H]1CN2c3c(cc4c(N5C(=O)OC[C@@H]5C)noc4c3F)C[14C]3(C(=O)NC(=O)NC3=O)[C@H]2[C@H](C)O1", "note": "[^14C-ETX0914]", "values": [
      {"measurement": "PPB (%free)", "setting": "[3]", "result": 22.1, "unit": "%free"},
      {"measurement": "Total radioactivity: Adrenal cortex", "setting": "[4]; [6]", "result": 84, "unit": "nmol/g"},
      {"measurement": "Total radioactivity: Adrenal medulla", "setting": "[4]; [6]", "result": 43, "unit": "nmol/g"},
      {"measurement": "Total radioactivity: Aortic wall", "setting": "[4]; [6]", "result": 53, "unit": "nmol/g"},
      {"measurement": "Total radioactivity: Bile", "setting": "[4]; [6]", "result": 1200, "unit": "nmol/g"},
      {"measurement": "Total radioactivity: Bone marrow", "setting": "[4]; [6]", "result": 35, "unit": "nmol/g"},
      {"measurement": "Total radioactivity: Brain", "setting": "[4]; [6]", "result": 0.79, "unit": "nmol/g"},
      {"measurement": "Total radioactivity: Choroid & retinal pigment epithelium", "setting": "[4]; [6]", "result": 16, "unit": "nmol/g"},
      {"measurement": "Total radioactivity: Heart blood", "setting": "[4]; [6]", "result": 27, "unit": "nmol/g"},
      {"measurement": "Total radioactivity: Liver", "setting": "[4]; [6]", "result": 320, "unit": "nmol/g"},
      {"measurement": "Total radioactivity: Lung", "setting": "[4]; [6]", "result": 52, "unit": "nmol/g"},
      {"measurement": "Total radioactivity: Lymph node", "setting": "[4]; [6]", "result": 29, "unit": "nmol/g"},
      {"measurement": "Total radioactivity: Myocardium", "setting": "[4]; [6]", "result": 73, "unit": "nmol/g"},
      {"measurement": "Total radioactivity: Renal cortex", "setting": "[4]; [6]", "result": 170, "unit": "nmol/g"},
      {"measurement": "Total radioactivity: Renal medulla (inner)", "setting": "[4]; [6]", "result": 70, "unit": "nmol/g"},
      {"measurement": "Total radioactivity: Renal medulla (outer)", "setting": "[4]; [6]", "result": 68, "unit": "nmol/g"},
      {"measurement": "Total radioactivity: Skeletal muscle", "setting": "[4]; [6]", "result": 29, "unit": "nmol/g"},
      {"measurement": "Total radioactivity: Skin, pigmented", "setting": "[4]; [6]", "result": 15, "unit": "nmol/g"},
      {"measurement": "Total radioactivity: Spinal cord", "setting": "[4]; [6]", "result": 1.0, "unit": "nmol/g"},
      {"measurement": "Total radioactivity: Testis", "setting": "[4]; [6]", "result": 2.4, "unit": "nmol/g"},
      {"measurement": "Total radioactivity: Urine", "setting": "[4]; [6]", "result": 51, "unit": "nmol/g"},
      {"measurement": "Total radioactivity: White fat", "setting": "[4]; [6]", "result": 6.6, "unit": "nmol/g"},
      {"measurement": "Total radioactivity: Adrenal cortex", "setting": "[4]; [7]", "result": 40, "unit": "nmol/g"},
      {"measurement": "Total radioactivity: Adrenal medulla", "setting": "[4]; [7]", "result": 26, "unit": "nmol/g"},
      {"measurement": "Total radioactivity: Aortic wall", "setting": "[4]; [7]", "result": 58, "unit": "nmol/g"},
      {"measurement": "Total radioactivity: Bile", "setting": "[4]; [7]", "result": 1500, "unit": "nmol/g"},
      {"measurement": "Total radioactivity: Bone marrow", "setting": "[4]; [7]", "result": 20, "unit": "nmol/g"},
      {"measurement": "Total radioactivity: Brain", "setting": "[4]; [7]", "result": 0.72, "unit": "nmol/g"},
      {"measurement": "Total radioactivity: Choroid & retinal pigment epithelium", "setting": "[4]; [7]", "result": 17, "unit": "nmol/g"},
      {"measurement": "Total radioactivity: Heart blood", "setting": "[4]; [7]", "result": 18, "unit": "nmol/g"},
      {"measurement": "Total radioactivity: Liver", "setting": "[4]; [7]", "result": 190, "unit": "nmol/g"},
      {"measurement": "Total radioactivity: Lung", "setting": "[4]; [7]", "result": 31, "unit": "nmol/g"},
      {"measurement": "Total radioactivity: Lymph node", "setting": "[4]; [7]", "result": 23, "unit": "nmol/g"},
      {"measurement": "Total radioactivity: Myocardium", "setting": "[4]; [7]", "result": 42, "unit": "nmol/g"},
      {"measurement": "Total radioactivity: Renal cortex", "setting": "[4]; [7]", "result": 130, "unit": "nmol/g"},
      {"measurement": "Total radioactivity: Renal medulla (inner)", "setting": "[4]; [7]", "result": 32, "unit": "nmol/g"},
      {"measurement": "Total radioactivity: Renal medulla (outer)", "setting": "[4]; [7]", "result": 120, "unit": "nmol/g"},
      {"measurement": "Total radioactivity: Skeletal muscle", "setting": "[4]; [7]", "result": 20, "unit": "nmol/g"},
      {"measurement": "Total radioactivity: Skin, pigmented", "setting": "[4]; [7]", "result": 20, "unit": "nmol/g"},
      {"measurement": "Total radioactivity: Spinal cord", "setting": "[4]; [7]", "result": 1.0, "unit": "nmol/g"},
      {"measurement": "Total radioactivity: Testis", "setting": "[4]; [7]", "result": 5.7, "unit": "nmol/g"},
      {"measurement": "Total radioactivity: Urine", "setting": "[4]; [7]", "result": 400, "unit": "nmol/g"},
      {"measurement": "Total radioactivity: White fat", "setting": "[4]; [7]", "result": 8.9, "unit": "nmol/g"},
      {"measurement": "Total radioactivity: Adrenal cortex", "setting": "[4]; [8]", "result": 8.7, "unit": "nmol/g"},
      {"measurement": "Total radioactivity: Adrenal medulla", "setting": "[4]; [8]", "result": 4.5, "unit": "nmol/g"},
      {"measurement": "Total radioactivity: Aortic wall", "setting": "[4]; [8]", "result": 13, "unit": "nmol/g"},
      {"measurement": "Total radioactivity: Bone marrow", "setting": "[4]; [8]", "result": 4.0, "unit": "nmol/g"},
      {"measurement": "Total radioactivity: Choroid & retinal pigment epithelium", "setting": "[4]; [8]", "result": 8.1, "unit": "nmol/g"},
      {"measurement": "Total radioactivity: Heart blood", "setting": "[4]; [8]", "result": 4.2, "unit": "nmol/g"},
      {"measurement": "Total radioactivity: Liver", "setting": "[4]; [8]", "result": 69, "unit": "nmol/g"},
      {"measurement": "Total radioactivity: Lung", "setting": "[4]; [8]", "result": 6.9, "unit": "nmol/g"},
      {"measurement": "Total radioactivity: Lymph node", "setting": "[4]; [8]", "result": 4.1, "unit": "nmol/g"},
      {"measurement": "Total radioactivity: Myocardium", "setting": "[4]; [8]", "result": 6.9, "unit": "nmol/g"},
      {"measurement": "Total radioactivity: Renal cortex", "setting": "[4]; [8]", "result": 39, "unit": "nmol/g"},
      {"measurement": "Total radioactivity: Renal medulla (inner)", "setting": "[4]; [8]", "result": 8.0, "unit": "nmol/g"},
      {"measurement": "Total radioactivity: Renal medulla (outer)", "setting": "[4]; [8]", "result": 18, "unit": "nmol/g"},
      {"measurement": "Total radioactivity: Skeletal muscle", "setting": "[4]; [8]", "result": 4.2, "unit": "nmol/g"},
      {"measurement": "Total radioactivity: Skin, pigmented", "setting": "[4]; [8]", "result": 3.6, "unit": "nmol/g"},
      {"measurement": "Total radioactivity: Spinal cord", "setting": "[4]; [8]", "result": 0.30, "unit": "nmol/g"},
      {"measurement": "Total radioactivity: Testis", "setting": "[4]; [8]", "result": 2.6, "unit": "nmol/g"},
      {"measurement": "Total radioactivity: Urine", "setting": "[4]; [8]", "result": 100, "unit": "nmol/g"},
      {"measurement": "Total radioactivity: Brain", "setting": "[4]; 4 hours after 25 mg/kg iv infusion, BLQ = below limit of quantification (0.24)", "result": "BLQ^d"},
      {"measurement": "Total radioactivity: Liver", "setting": "[4]; 24 hours after 25 mg/kg iv infusion", "result": 0.35, "unit": "nmol/g"},
      {"measurement": "Total radioactivity: Liver", "setting": "[4]; 48 hours after 25 mg/kg iv infusion, BLQ = below limit of quantification (0.24)", "result": "BLQ"},
      {"measurement": "melanin or covalent binding of parent and/or metabolites to tissue", "setting": "[4]; pigmented rat", "result": "no melanin or covalent binding"},
      {"measurement": "CNS penetration", "setting": "[4]; rat, whole-body autoradiography", "result": "very low CNS penetration"},
      {"measurement": "PPB (%free)", "setting": "[5]", "result": 17.0, "unit": "% free"}
    ]}
  ]
}
